Details: human gut metagenome, 24 h, 2 µM
Further: call rule not given here.

Row | Structure (SMILES) | Bacterial Biotransformation
1 | CCC(COC(=O)c1cc(OC)c(OC)c(OC)c1)(c1ccccc1)N(C)C.O=C(O)/C=C\C(=O)O (stereo not given) | Compound NOT metabolized
2 | CCCc1nc(C(C)(C)O)c(C(=O)OCc2oc(=O)oc2C)n1Cc1ccc(-c2ccccc2-c2nnn[nH]2)cc1 [OLMESARTAN MEDOXOMIL] | Compound metabolized

Assay: (§1) The drug is tested on Z-019 corresponding to rat gut metagenome with ENA study accession number: PRJEB37062 and ENA sample accession number: ERS12561818 for biotransformation under anaerobic condition. The drug concentrations were measured over 9 timepoints collected between 0 and 24 hours of incubation by liquid-chromatography-coupled mass spectrometry (LC–MS)
Details: 2 µM

Row | Structure (SMILES) | Bacterial Biotransformation
3 | CCC(COC(=O)c1cc(OC)c(OC)c(OC)c1)(c1ccccc1)N(C)C.O=C(O)/C=C\C(=O)O (stereo not given) | Compound NOT metabolized
4 | CCCc1nc(C(C)(C)O)c(C(=O)OCc2oc(=O)oc2C)n1Cc1ccc(-c2ccccc2-c2nnn[nH]2)cc1 [OLMESARTAN MEDOXOMIL] | Compound NOT metabolized

Details: human gut metagenome, 24 h, 2 µM
Remark: another data set of the same source

Row | Structure (SMILES) | Bacterial Biotransformation
5 | CCC(COC(=O)c1cc(OC)c(OC)c(OC)c1)(c1ccccc1)N(C)C.O=C(O)/C=C\C(=O)O (stereo not given) | Compound NOT metabolized
6 | CCCc1nc(C(C)(C)O)c(C(=O)OCc2oc(=O)oc2C)n1Cc1ccc(-c2ccccc2-c2nnn[nH]2)cc1 [OLMESARTAN MEDOXOMIL] | Compound metabolized

Assay: as §1, with “on Z-013” for “on Z-019”, “to rabbit” for “to rat”, “number: ERS12561813” for “number: ERS12561818”
Details: 2 µM

Row | Structure (SMILES) | Bacterial Biotransformation
7 | CCC(COC(=O)c1cc(OC)c(OC)c(OC)c1)(c1ccccc1)N(C)C.O=C(O)/C=C\C(=O)O (stereo not given) | Compound NOT metabolized
8 | CCCc1nc(C(C)(C)O)c(C(=O)OCc2oc(=O)oc2C)n1Cc1ccc(-c2ccccc2-c2nnn[nH]2)cc1 [OLMESARTAN MEDOXOMIL] | Compound metabolized

Assay: as §1, with “on WLS-007” for “on Z-019”, “to human” for “to rat”, “number: ERS12561742” for “number: ERS12561818”
Details: 2 µM

Row | Structure (SMILES) | Bacterial Biotransformation
9 | CCC(COC(=O)c1cc(OC)c(OC)c(OC)c1)(c1ccccc1)N(C)C.O=C(O)/C=C\C(=O)O (stereo not given) | Compound NOT metabolized
10 | CCCc1nc(C(C)(C)O)c(C(=O)OCc2oc(=O)oc2C)n1Cc1ccc(-c2ccccc2-c2nnn[nH]2)cc1 [OLMESARTAN MEDOXOMIL] | Compound metabolized

Assay: as §1, with “on Z-017” for “on Z-019”, “to mouse” for “to rat”, “number: ERS12561816” for “number: ERS12561818”
Details: 2 µM

Row | Structure (SMILES) | Bacterial Biotransformation
11 | CCC(COC(=O)c1cc(OC)c(OC)c(OC)c1)(c1ccccc1)N(C)C.O=C(O)/C=C\C(=O)O (stereo not given) | Compound NOT metabolized
12 | CCCc1nc(C(C)(C)O)c(C(=O)OCc2oc(=O)oc2C)n1Cc1ccc(-c2ccccc2-c2nnn[nH]2)cc1 [OLMESARTAN MEDOXOMIL] | Compound metabolized

Details: human gut metagenome, 24 h, 2 µM
Remark: another data set of the same source

Row | Structure (SMILES) | Bacterial Biotransformation
13 | CCC(COC(=O)c1cc(OC)c(OC)c(OC)c1)(c1ccccc1)N(C)C.O=C(O)/C=C\C(=O)O (stereo not given) | Compound NOT metabolized
14 | CCCc1nc(C(C)(C)O)c(C(=O)OCc2oc(=O)oc2C)n1Cc1ccc(-c2ccccc2-c2nnn[nH]2)cc1 [OLMESARTAN MEDOXOMIL] | Compound metabolized

Details: human gut metagenome, 24 h, 2 µM
Remark: another data set of the same source

Row | Structure (SMILES) | Bacterial Biotransformation
15 | CCC(COC(=O)c1cc(OC)c(OC)c(OC)c1)(c1ccccc1)N(C)C.O=C(O)/C=C\C(=O)O (stereo not given) | Compound NOT metabolized
16 | CCCc1nc(C(C)(C)O)c(C(=O)OCc2oc(=O)oc2C)n1Cc1ccc(-c2ccccc2-c2nnn[nH]2)cc1 [OLMESARTAN MEDOXOMIL] | Compound metabolized

Details: human gut metagenome, 24 h, 2 µM
Remark: another data set of the same source

Row | Structure (SMILES) | Bacterial Biotransformation
17 | CCC(COC(=O)c1cc(OC)c(OC)c(OC)c1)(c1ccccc1)N(C)C.O=C(O)/C=C\C(=O)O (stereo not given) | Compound metabolized
18 | CCCc1nc(C(C)(C)O)c(C(=O)OCc2oc(=O)oc2C)n1Cc1ccc(-c2ccccc2-c2nnn[nH]2)cc1 [OLMESARTAN MEDOXOMIL] | Compound metabolized

Assay: as §1, with “on Z-016” for “on Z-019”, “to mouse” for “to rat”, “number: ERS12561815” for “number: ERS12561818”
Details: 2 µM

Row | Structure (SMILES) | Bacterial Biotransformation
19 | CCC(COC(=O)c1cc(OC)c(OC)c(OC)c1)(c1ccccc1)N(C)C.O=C(O)/C=C\C(=O)O (stereo not given) | Compound NOT metabolized
20 | CCCc1nc(C(C)(C)O)c(C(=O)OCc2oc(=O)oc2C)n1Cc1ccc(-c2ccccc2-c2nnn[nH]2)cc1 [OLMESARTAN MEDOXOMIL] | Compound metabolized

Details: human gut metagenome, 24 h, 2 µM
Remark: another data set of the same source

Row | Structure (SMILES) | Bacterial Biotransformation
21 | CCC(COC(=O)c1cc(OC)c(OC)c(OC)c1)(c1ccccc1)N(C)C.O=C(O)/C=C\C(=O)O (stereo not given) | Compound metabolized
22 | CCCc1nc(C(C)(C)O)c(C(=O)OCc2oc(=O)oc2C)n1Cc1ccc(-c2ccccc2-c2nnn[nH]2)cc1 [OLMESARTAN MEDOXOMIL] | Compound metabolized

Assay: as §1, with “Z-008” for “Z-019”, “to” for “to rat gut”, “ERS12561808” for “ERS12561818”
Details: 2 µM

Row | Structure (SMILES) | Bacterial Biotransformation
23 | CCC(COC(=O)c1cc(OC)c(OC)c(OC)c1)(c1ccccc1)N(C)C.O=C(O)/C=C\C(=O)O (stereo not given) | Compound NOT metabolized
24 | CCCc1nc(C(C)(C)O)c(C(=O)OCc2oc(=O)oc2C)n1Cc1ccc(-c2ccccc2-c2nnn[nH]2)cc1 [OLMESARTAN MEDOXOMIL] | Compound metabolized

Assay: as §1, with “Z-014” for “Z-019”, “ERS12561814” for “ERS12561818”
Details: 2 µM

Row | Structure (SMILES) | Bacterial Biotransformation
25 | CCC(COC(=O)c1cc(OC)c(OC)c(OC)c1)(c1ccccc1)N(C)C.O=C(O)/C=C\C(=O)O (stereo not given) | Compound NOT metabolized
26 | CCCc1nc(C(C)(C)O)c(C(=O)OCc2oc(=O)oc2C)n1Cc1ccc(-c2ccccc2-c2nnn[nH]2)cc1 [OLMESARTAN MEDOXOMIL] | Compound NOT metabolized

Assay: as §1, with “on WLS-086” for “on Z-019”, “to human” for “to rat”, “number: ERS12561752” for “number: ERS12561818”
Details: 2 µM

Row | Structure (SMILES) | Bacterial Biotransformation
27 | CCC(COC(=O)c1cc(OC)c(OC)c(OC)c1)(c1ccccc1)N(C)C.O=C(O)/C=C\C(=O)O (stereo not given) | Compound NOT metabolized
28 | CCCc1nc(C(C)(C)O)c(C(=O)OCc2oc(=O)oc2C)n1Cc1ccc(-c2ccccc2-c2nnn[nH]2)cc1 [OLMESARTAN MEDOXOMIL] | Compound metabolized

Assay: as §1, with “on WLS-073” for “on Z-019”, “to human” for “to rat”, “number: ERS12561749” for “number: ERS12561818”
Details: 2 µM

Row | Structure (SMILES) | Bacterial Biotransformation
29 | CCC(COC(=O)c1cc(OC)c(OC)c(OC)c1)(c1ccccc1)N(C)C.O=C(O)/C=C\C(=O)O (stereo not given) | Compound NOT metabolized
30 | CCCc1nc(C(C)(C)O)c(C(=O)OCc2oc(=O)oc2C)n1Cc1ccc(-c2ccccc2-c2nnn[nH]2)cc1 [OLMESARTAN MEDOXOMIL] | Compound metabolized

Assay: as §1, with “on WLS-310” for “on Z-019”, “to human” for “to rat”, “number: ERS12561785” for “number: ERS12561818”
Details: 2 µM

Row | Structure (SMILES) | Bacterial Biotransformation
31 | CCC(COC(=O)c1cc(OC)c(OC)c(OC)c1)(c1ccccc1)N(C)C.O=C(O)/C=C\C(=O)O (stereo not given) | Compound metabolized
32 | CCCc1nc(C(C)(C)O)c(C(=O)OCc2oc(=O)oc2C)n1Cc1ccc(-c2ccccc2-c2nnn[nH]2)cc1 [OLMESARTAN MEDOXOMIL] | Compound metabolized

Assay: as §1, with “on WLS-220” for “on Z-019”, “to human” for “to rat”, “number: ERS12561769” for “number: ERS12561818”
Details: 2 µM

Row | Structure (SMILES) | Bacterial Biotransformation
33 | CCC(COC(=O)c1cc(OC)c(OC)c(OC)c1)(c1ccccc1)N(C)C.O=C(O)/C=C\C(=O)O (stereo not given) | Compound metabolized
34 | CCCc1nc(C(C)(C)O)c(C(=O)OCc2oc(=O)oc2C)n1Cc1ccc(-c2ccccc2-c2nnn[nH]2)cc1 [OLMESARTAN MEDOXOMIL] | Compound metabolized

Details: human gut metagenome, 24 h, 2 µM
Remark: another data set of the same source

Row | Structure (SMILES) | Bacterial Biotransformation
35 | CCC(COC(=O)c1cc(OC)c(OC)c(OC)c1)(c1ccccc1)N(C)C.O=C(O)/C=C\C(=O)O (stereo not given) | Compound NOT metabolized
36 | CCCc1nc(C(C)(C)O)c(C(=O)OCc2oc(=O)oc2C)n1Cc1ccc(-c2ccccc2-c2nnn[nH]2)cc1 [OLMESARTAN MEDOXOMIL] | Compound metabolized

Details: human gut metagenome, 24 h, 2 µM
Remark: another data set of the same source

Row | Structure (SMILES) | Bacterial Biotransformation
37 | CCC(COC(=O)c1cc(OC)c(OC)c(OC)c1)(c1ccccc1)N(C)C.O=C(O)/C=C\C(=O)O (stereo not given) | Compound NOT metabolized
38 | CCCc1nc(C(C)(C)O)c(C(=O)OCc2oc(=O)oc2C)n1Cc1ccc(-c2ccccc2-c2nnn[nH]2)cc1 [OLMESARTAN MEDOXOMIL] | Compound metabolized

Assay: as §1, with “on WLS-038” for “on Z-019”, “to human” for “to rat”, “number: ERS12561745” for “number: ERS12561818”
Details: 2 µM

Row | Structure (SMILES) | Bacterial Biotransformation
39 | CCC(COC(=O)c1cc(OC)c(OC)c(OC)c1)(c1ccccc1)N(C)C.O=C(O)/C=C\C(=O)O (stereo not given) | Compound NOT metabolized
40 | CCCc1nc(C(C)(C)O)c(C(=O)OCc2oc(=O)oc2C)n1Cc1ccc(-c2ccccc2-c2nnn[nH]2)cc1 [OLMESARTAN MEDOXOMIL] | Compound metabolized
